Experimental data as given in patent US11298363B2, “Triazolobenzazepines as vasopressin V1a receptor antagonists” (RICHTER GEDEON NYRT., priority 2017, dated 2022).

Legend:
[1] = target: T1, human vasopressin V1a receptor (Homo sapiens, UniProt P37288); experiment: Human vasopressin V1a receptor binding assay; details: 1321N1 cell membranes, [3H]vasopressin; read-out: Ki (nM) on hV1a cell line
In short: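 Ki values come from IC50 via Cheng-Prusoff (KD from prior Scatchard), averaged over at least two independent runs. Human V1a membranes were incubated with radioligand 60 minutes at 27° C., bound ligand collected by filtration; (Arg^8)-vasopressin at 1.2×10^−6 M defined non-specific binding.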

[2] = target: T1, human vasopressin V1a receptor; experiment: Functional assay on human vasopressin V1a receptor expressing cell line (intracellular Ca2+ fluorescence); format: cell-based; details: 1321N1 cells, (Arg8)-vasopressin at EC80; read-out: IC50 (nM) on hV1a cell line

T1 sequence (P37288 whole entry): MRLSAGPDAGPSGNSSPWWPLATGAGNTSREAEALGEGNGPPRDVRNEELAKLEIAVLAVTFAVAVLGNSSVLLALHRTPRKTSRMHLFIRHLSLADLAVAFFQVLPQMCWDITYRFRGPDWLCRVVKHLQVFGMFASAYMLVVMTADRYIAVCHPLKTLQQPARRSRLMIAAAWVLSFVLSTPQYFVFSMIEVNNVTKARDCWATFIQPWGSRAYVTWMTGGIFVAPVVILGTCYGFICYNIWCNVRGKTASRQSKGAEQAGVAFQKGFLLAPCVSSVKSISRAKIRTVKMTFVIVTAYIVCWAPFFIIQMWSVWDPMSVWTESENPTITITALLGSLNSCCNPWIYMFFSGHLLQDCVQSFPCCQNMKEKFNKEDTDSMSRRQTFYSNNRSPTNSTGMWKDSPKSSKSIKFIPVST

With `C=CC(=O)N[C@H]1Cc2cc(Cl)ccc2-n2c(nnc2[C@H]2CC[C@H](Oc3ccccn3)CC2)C1` [Example 98, N-{(5S)-8-chloro-1-[trans-4-(pyridin-2-yloxy)cyclohexyl]-5,6-dihydro-4H-[1,2,4]triazolo[4,3-a][1]benzazepin-5-yl}prop-2-enamide] the Ki [1] was 2.1 nM and the IC50 [2] was 39 nM.
For `O=C1Cc2ccccc2-n2c(nnc2[C@H]2CC[C@H](Oc3ccccn3)CC2)C1` [Example 102, 1-[trans-4-(pyridin-2-yloxy)cyclohexyl]-4H-[1,2,4]triazolo[4,3-a][1]benzazepin-5(6H)-one], the Ki [1] was 5.9 nM and the IC50 [2] was 23 nM.
Molecule `CC(C)OC1Cc2cc(Cl)ccc2-n2c(nnc2[C@H]2CC[C@H](Oc3ccccn3)CC2)C1` (stereo partly drawn) [Example 105, 8-chloro-5-(propan-2-yloxy)-1-[trans-4-(pyridin-2-yloxy)cyclohexyl]-5,6-dihydro-4H-[1,2,4]triazolo[4,3-a][1]benzazepine] has a Ki [1] of 0.3 nM and an IC50 [2] of 1.4 nM.
`Clc1ccc2c(c1)CC1(Cc3nnc([C@H]4CC[C@H](Oc5ccccn5)CC4)n3-2)OCCCCO1` [Example 106, 8′-chloro-1′-[trans-4-(pyridin-2-yloxy)cyclohexyl]-4°,6′-spiro[1,3-dioxepane-2,5′-[1,2,4]triazolo[4,3-a][1]benzazepine]] showed a Ki [1] of 0.1 nM and an IC50 [2] of 1.8 nM.
In the case of `OC1Cc2ccccc2-n2c(nnc2[C@H]2CC[C@H](Oc3ccccn3)CC2)C1` (stereo partly drawn) [Example 107, 1-[trans-4-(pyridin-2-yloxy)cyclohexyl]-5,6-dihydro-4H-[1,2,4]triazolo[4,3-a][1]benzazepin-5-ol], the Ki [1] is reported as 1 nM and the IC50 [2] is reported as 12 nM.
For `O=C([C@H]1CC[C@H](c2nnc3n2-c2ccc(Cl)cc2CC2(C3)OCCO2)CC1)N1CCOCC1` [Example 108, Trans-4-(8′-chloro-4′H,6′H-spiro[1,3-dioxolane-2,5′-[1,2,4]triazolo[4,3-a][1]benzazepin]-1′-yl)cyclohexyl(morpholin-4-yl)methanone], the Ki [1] was 0.2 nM and the IC50 [2] was 4.9 nM.
With `COC1Cc2ccccc2-n2c(nnc2[C@H]2CC[C@H](Oc3ccccn3)CC2)C1` (stereo partly drawn) [Example 109, 5-methoxy-1-[trans-4-(pyridin-2-yloxy)cyclohexyl]-5,6-dihydro-4H-[1,2,4]triazolo[4,3-a][1]benzazepine] the Ki [1] was 0.4 nM and the IC50 [2] was 2.7 nM.
Work on `O=C1Cc2cc(F)ccc2-n2c(nnc2[C@H]2CC[C@H](Oc3ccccn3)CC2)C1` [Example 110, 8-fluoro-1-[trans-4-(pyridin-2-yloxy)cyclohexyl]-4H-[1,2,4]triazolo[4,3-a][1]benzazepin-5(6H)-one] yielded a Ki [1] of 2.1 nM and an IC50 [2] of 8.3 nM.
`OC1Cc2cc(F)ccc2-n2c(nnc2[C@H]2CC[C@H](Oc3ccccn3)CC2)C1` (stereo partly drawn) [Example 111, 8-fluoro-1-[trans-4-(pyridin-2-yloxy)cyclohexyl]-5,6-dihydro-4H-[1,2,4]triazolo[4,3-a][1]benzazepin-5-ol] was tested, and the Ki [1] was 0.3 nM and the IC50 [2] was 2.4 nM.
`CC(C)(C)OC(=O)NC1Cc2cc(Cl)ccc2-n2c(nnc2[C@H]2CC[C@H](N3CCOCC3)CC2)C1` (stereo partly drawn) [Example 112, Tert-butyl {8-chloro-1-[trans-4-(morpholin-4-yl)cyclohexyl]-5,6-dihydro-4H-[1,2,4]triazolo[4,3-a][1]benzazepin-5-yl}carbamate] was tested, and the Ki [1] was 45.4 nM and the IC50 [2] was 213 nM.
With `NC1Cc2cc(Cl)ccc2-n2c(nnc2[C@H]2CC[C@H](N3CCOCC3)CC2)C1` (stereo partly drawn) [Example 113, 8-chloro-1-[trans-4-(morpholin-4-yl)cyclohexyl]-5,6-dihydro-4H-[1,2,4]triazolo[4,3-a][1]benzazepin-5-amine] the Ki [1] was 21 nM and the IC50 [2] was 305 nM.
`CC(C)NC1Cc2cc(Cl)ccc2-n2c(nnc2[C@H]2CC[C@H](N3CCOCC3)CC2)C1` (some centres unmarked) [Example 114] gave a Ki [1] of 26.5 nM and an IC50 [2] of 205 nM.
In the case of `CC(C)N1CC[C@]2(CC[C@@H](c3nnc4n3-c3ccc(Cl)cc3CC3(C4)OCCO3)CC2)C1=O` [Example 115], the Ki [1] is reported as 0.5 nM and the IC50 [2] is reported as 0.8 nM.
Work on `CC(C)N1CC[C@]2(CC[C@@H](c3nnc4n3-c3ccc(Cl)cc3CC(O)C4)CC2)C1=O` (some centres unmarked) [Example 116, (5r,8r)-8-(8-chloro-5-hydroxy-5,6-dihydro-4H-[1,2,4]triazolo[4,3-a][1]benzazepin-1-yl)-2-(propan-2-yl)-2-azaspiro[4,5]decan-1-one] yielded a Ki [1] of 0.7 nM and an IC50 [2] of 2.1 nM.
`Clc1ccc2c(c1)C[C@H](N1CCCC1)Cc1nnc([C@H]3CC[C@H](Oc4ccccn4)CC3)n1-2` [Example 117, (5S)-8-chloro-1-[trans-4-pyridin-2-loxcyclohexyl]-5-(pyrrolidin-1-yl)-5,6-dihydro-4H-[1,2,4]triazolo[4,3-a][1]benzazepine] showed a Ki [1] of 0.9 nM and an IC50 [2] of 4.3 nM.
In the case of `CC(C)(C)C(=O)N[C@H]1Cc2cc(Cl)ccc2-n2c(nnc2[C@H]2CC[C@H](Oc3ccccn3)CC2)C1` [Example 118], the Ki [1] is reported as 66 nM and the IC50 [2] is reported as 251 nM.
`O=C(N[C@H]1Cc2cc(Cl)ccc2-n2c(nnc2[C@H]2CC[C@H](Oc3ccccn3)CC2)C1)C1CC1` [Example 119, N-{(5S)-8-chloro-1-[trans-4-(pyridin-2-yloxy)cyclohexyl]-5,6-dihydro-4H-[1,2,4]triazolo[4,3-a][1]benzazepin-5-yl}cyclopropanecarboxamide] showed a Ki [1] of 27 nM and an IC50 [2] of 111 nM.
In the case of `CC(C)C(=O)N[C@H]1Cc2cc(Cl)ccc2-n2c(nnc2[C@H]2CC[C@H](Oc3ccccn3)CC2)C1` [Example 120, N-{(5S)-8-chloro-1-[trans-4-(pyridin-2-yloxy)cyclohexyl]-5,6-dihydro-4H-[1,2,4]triazolo[4,3-a][1]benzazepin-5-yl}-2-methylpropanamide], the Ki [1] is reported as 52 nM and the IC50 [2] is reported as 465 nM.
Work on `O=C(N[C@H]1Cc2cc(Cl)ccc2-n2c(nnc2[C@H]2CC[C@H](Oc3ccccn3)CC2)C1)C1CCC1` [Example 121, N-{(5S)-8-chloro-1-[trans-4-(pyridin-2-yloxy)cyclohexyl]-5,6-dihydro-4H-[1,2,4]triazolo[4,3-a][1]benzazepin-5-yl}cyclobutanecarboxamide] yielded a Ki [1] of 79 nM and an IC50 [2] of 442 nM.
Molecule `Clc1ccc2c(c1)C[C@H](N1CCOCC1)Cc1nnc([C@H]3CC[C@H](Oc4ccccn4)CC3)n1-2` [Example 122, (5S)-8-chloro-5-(morpholin-4-yl)-1-[trans-4-(pyridin-2-yloxy)cyclohexyl]-5,6-dihydro-4H-[1,2,4]triazolo[4,3-a][1]benzazepine] has a Ki [1] of 3 nM and an IC50 [2] of 14 nM.
In the case of `CC(C)(C)C(=O)N[C@@H]1Cc2cc(Cl)ccc2-n2c(nnc2[C@H]2CC[C@H](Oc3ccccn3)CC2)C1` [Example 123, N-{(5R)-8-chloro-1-[trans-4-(pyridin-2-yloxy)cyclohexyl]-5,6-dihydro-4H-[2,4]triazolo[4,3-a][1]benzazepin-5-yl}-2,2-dimethylpropanamide], the Ki [1] is reported as 2.1 nM and the IC50 [2] is reported as 6.3 nM.
`CC(C)C(=O)N[C@@H]1Cc2cc(Cl)ccc2-n2c(nnc2[C@H]2CC[C@H](Oc3ccccn3)CC2)C1` [Example 124, N-{(5R)-8-chloro-1-[trans-4-(pyridin-2-yloxy)cyclohexyl]-5,6-dihydro-4H-[1,2,4]triazolo[4,3-a][1]benzazepin-5-yl}-2-methylpropanamide] showed a Ki [1] of 1.7 nM and an IC50 [2] of 5.1 nM.
